Data from PubChem BioAssay AID489041 (Sanford-Burnham Center for Chemical Genomics, 2010).
Activity calls are given as the source filed them. No rule for the calls is given here. *1 amine or outer side, *2 acyl side, *3 side chain or, on linkers, in order; H or OH if unused. Where a SMILES comes first, the peptide text is derived from it. [ ]: non-standard residue; d: D form. X2 = CCC[C@@H](N[*:1])[C@H](C)C(=O)O[C@H](C(=O)[*:2])[C@@H](C)CC; X1 = CC(N[*:1])C(=O)C(C)(C)C(=O)[*:2]; NMeY = CN[C@@H](Cc1ccc(O)cc1)C(=O)O; NMeL = CN[C@@H](CC(C)C)C(=O)O; NMeV = CN[C@H](C(=O)O)C(C)C; NMeA = CN[C@@H](C)C(=O)O

System: HEK-293T NF-kB luciferase reporter counterscreen, luminescence
Assay: NF-kB reporter inhibition in HEK-293T, dose response, counter-screen for T-cell antigen receptor NF-kB inhibitors, HEK-293T cells, luminescence (AID 489041)

| SMILES | IC50 |
| --- | --- |
| CC#CC(=O)N1CCC(n2nccc2NC(=O)c2ccc3c(c2)OCO3)CC1 | > 80 µM (inactive) |
| Cc1c(C)c2ccc(OCC(=O)Nc3ccccn3)c(C)c2oc1=O | 1.78 µM |
| CCC[C@H]1NC(=O)[C@H](C)N(C)C(=O)C(C)(C)C(=O)C(C)NC(=O)[C@H](Cc2ccc(OC)cc2)N(C)C(=O)[C@H](C(C)C)N(C)C(=O)CNC(=O)[C@H](CC(C)C)N(C)C(=O)CNC(=O)[C@H]([C@@H](C)CC)OC(=O)[C@H]1C (some centres not stated) (cyclo(G[NMeL]G[NMeV][NMeY](Me)[X1][NMeA][X2])) | 46.7 µM (inactive) |
| COc1cc(OC)c(/C=C2\C(=O)Nc3ccccc32)c(OC)c1 | 6.26 µM |
| COc1ccccc1CNS(=O)(=O)c1ccc(-c2cnc(C3CC3)o2)cc1 | 2.6 µM |
| O=C(Nc1ccc(S(=O)(=O)N2CCCC2)cc1)c1ccc(CN2CCc3ccccc3C2)cc1 | 0.73 µM |
| Cc1noc(C)c1COc1cccc(C(=O)OCC(=O)N2CC(=O)Nc3ccccc32)c1 | 24.9 µM (inactive) |
| C=C(C)[C@@]12OC3(c4ccccc4)O[C@@H]1C1[C@@H]4O[C@]4(CO)[C@@H](O)[C@]4(O)C(=O)C(C)=C[C@H]4[C@@]1(O3)[C@H](C)[C@H]2OC(=O)/C=C/C=C/c1ccccc1 (some centres not stated) | < 0.16 µM |
| CCn1ncc(C2=NOC(C(=O)NCc3ccc(Cl)cc3)C2)c1C (configuration not stated) | 26 µM (inactive) |
| COC(=O)c1ccccc1NC(=O)CSc1nc(-c2ccco2)cc(C(F)(F)F)n1 | 7.95 µM |
| CCCCCCCCCCn1c2c(c(=N)c3c1CCC3)CCC2 | 1.29 µM |
| Cc1oc2c(c1C(=O)NCc1cccnc1)C(=O)c1ccccc1C2=O | 1.48 µM |
| CCOCCOC(=O)c1[nH]c2c(c1C)C(=O)CC(c1cccs1)C2 (configuration not stated) | 4.6 µM |
| CC(C)Nc1ccc(C(CC(N)=O)NC(=O)Cc2ccc(Br)cc2)cc1[N+](=O)[O-] (configuration not stated) | 68.8 µM (inactive) |
| CCCN(CCC)C1=CC(=[N+]2CCCC2)CC(C)(C)C1 | 2.39 µM |
| COc1ccc(C2=Nn3c([n+](C)c4ccccc43)SC2)cc1 | 2.63 µM |
| CCOC(=O)c1c(C)[nH]c(C(=O)N/N=C/c2ccc(Br)cc2)c1C | < 0.16 µM |
| CC(Oc1ccc(Cl)cc1Cl)c1nc(-c2ccc(NC(=O)c3ccncc3)cc2)no1 (configuration not stated) | 2.39 µM |
| COc1ccc(C(=O)c2ccc(N(C)C)cc2)c(OC)c1 | 71.1 µM (inactive) |
| COc1ccc(CS(=O)/C(Cl)=C(/Cl)C(=O)Nc2ccc(OC)nc2)cc1 (configuration not stated) | 4.31 µM |
| COc1ccc([N+](=O)[O-])cc1Nc1c2ccccc2nc2ccccc12 | 1.38 µM |
| CCOC(=O)c1ccccc1NC(=O)Cn1c(-c2nonc2N)nc2ccccc21 | 0.47 µM |
| CCO[C@H]1OC(C(=O)NCc2nc3ccccc3[nH]2)=C[C@@H](C2CC2)[C@@H]1CCCO | 41.1 µM (inactive) |
| O=C1c2cccc3cc([N+](=O)[O-])cc(c23)C(=O)N1CCN1CCCC1 | > 80 µM (inactive) |

| SMILES | IC50 |
| --- | --- |
| COc1cc(C(=O)N2CCN(c3cc(Cl)ccc3Cl)CC2)cc(OC)c1OC | 3.01 µM |
| Cc1ccc2[nH]c(-c3cccc(F)c3)cc(=O)c2c1 | > 80 µM (inactive) |
| O=C(Nc1ccncc1)C1CCCN(S(=O)(=O)c2cccc3cccnc23)C1 (configuration not stated) | 35.1 µM (inactive) |
| CCCCN1/C(=C/c2ccc3ccccc3[n+]2CC)Sc2ccccc21 | 2.02 µM |
| O=C1C=CCC(/C=C/c2ccccc2)O1 (configuration not stated) | 22.2 µM (inactive) |
| COC(=O)c1ccccc1NC(=O)Cn1c(-c2nonc2N)nc2ccccc21 | 3.77 µM |
| CNC[C@@H](CC1CCCCC1)NC[C@H](CC(C)C)NCCc1cccc(C(F)(F)F)c1 | 12.8 µM |
| CCC(=O)NC(c1cccs1)c1ccc2cccnc2c1O (configuration not stated) | 1.61 µM |
| Nc1ncn([C@@H]2O[C@H](CO)[C@@H](O)[C@H]2O)c(=O)n1 | 4.76 µM |
| COC(=O)c1c(NC(=O)c2ccc([N+](=O)[O-])o2)sc2c1CCN(C(C)C)C2 | 51.8 µM (inactive) |
| COc1cccc(C2CC(=O)Nc3cc4c(cc32)CCC4)c1 (configuration not stated) | 10.7 µM |
| Cn1nc(-c2ccccn2)nc2c(=O)n(C)c(=O)nc1-2 | 5.68 µM |
| O=C(Nc1ccc([N+](=O)[O-])cc1)Nc1ccon1 | > 80 µM (inactive) |
| COc1cccc(N2CCN(C(=O)c3cn(Cc4ccccc4)nc3-c3cccnc3)CC2)c1 | 16.4 µM |
| CCCC(=O)NC(c1ccc(OC)cc1)c1ccc2cccnc2c1O (configuration not stated) | > 80 µM (inactive) |
| Cc1c(C(=O)OCc2ccccc2)[nH]c2c1C(=O)CC(c1ccco1)C2 (configuration not stated) | 10.1 µM |
| CCN(c1ccccc1)S(=O)(=O)c1ccc(C(=O)NC2CCN(Cc3ccccc3)CC2)cc1 | 3.14 µM |
| C=C1C(=O)O[C@H]2C[C@@H](C)[C@@H]3C=CC(=O)[C@@]3(C)C[C@H]12 | 5.84 µM |
| O=C(NCCOc1ccccc1)c1cc([N+](=O)[O-])ccc1N1CCOCC1 | 72.2 µM (inactive) |
| CCCCCCCCCCCCCCCC[n+]1ccc(/C=N/O)cc1 | 20.7 µM (inactive) |
| O=C(Nc1ccncc1)c1ccc(Cl)c(S(=O)(=O)N2CCc3ccccc32)c1 | 1.49 µM |
| O=C(Nc1cccc2ccccc12)OC1C=CS(=O)(=O)C1 (configuration not stated) | 51.2 µM (inactive) |
| Cc1ccc(-c2cc(-c3ccc(C)cc3)[n+](-c3ccccc3)c(-c3ccc(C)cc3)c2)cc1 | 1.1 µM |
| CCn1nc(C)c(CNC(=O)c2ccc(OC3CCN(Cc4ccccn4)CC3)cc2)c1C | 1.72 µM |

| SMILES | IC50 |
| --- | --- |
| O=C(COc1ccc(C(=O)c2ccccc2)cc1)NCc1ccc(F)cc1 | 6.31 µM |
| Clc1cccc(Cl)c1OCCOCCNCc1ccccc1 | 68.4 µM (inactive) |
| O=c1cc(-c2ccccc2)[nH]c2cc(F)ccc12 | 2.62 µM |
| COc1ccc(Nc2nc3cc(C)ccc3cc2C#N)c(OC)c1 | > 80 µM (inactive) |
| CCN1/C(=C/c2ccc3cc(C)ccc3[n+]2CC)Sc2ccc3sccc3c21 | 63 µM (inactive) |
| CCCOC(=O)c1[nH]c2c(c1C)C(=O)CC(c1cccs1)C2 (configuration not stated) | 15.2 µM |
| CCOCCCNC(=O)c1cc2c(=O)n3cccc(C)c3nc2n1C | > 80 µM (inactive) |
| CCCCOc1ccccc1C1CC(=O)NC2=C1C(=O)CCC2 (configuration not stated) | 12.8 µM |
| COc1cc(Nc2ccc(C)cc2)c([N+](=O)[O-])nc1[N+](=O)[O-] | 19.9 µM |
| C[C@]12CC[C@H](O)C[C@H]1CC[C@@H]1[C@@H]2CC[C@]2(C)[C@@H](C3=CC(=O)OC3)CC[C@]12O | < 0.16 µM |
| Cc1cccc(NS(=O)(=O)c2ccc(-c3cnc(C4CC4)o3)cc2)c1C | 1.7 µM |
| CCc1ccc(/C=N/NC(=O)c2cc(-c3ccncc3)nc3ccccc23)s1 | 7.66 µM |
| COC(=O)Nc1ccc(S(=O)(=O)N2CCCc3ccccc32)cc1 | 11.9 µM |
| Cc1ccc(O)c(N=Nc2nccs2)c1 | > 80 µM (inactive) |
| O=C(Nc1ccc(Cl)c(S(=O)(=O)N2CCOCC2)c1)c1ccc(OCC2CCCO2)cc1 (configuration not stated) | 3.14 µM |
| CS(=O)(=O)c1ccc(Sc2nc3ccccc3s2)c([N+](=O)[O-])c1 | 17.1 µM |
| COc1cc(CC(=O)OCC(=O)c2ccc3c(c2)OCCO3)cc(OC)c1OC | 0.67 µM |
| Cc1ccc(S(=O)(=O)Cc2ccc(C(=O)N3CCN(c4cccc(C)c4C)CC3)o2)cc1 | 3.22 µM |
| CCOC(=O)c1ccccc1NS(=O)(=O)c1ccc(OCC)cc1 | 17.7 µM |
| CCOC(=O)COc1cccc2c(=O)n(CC(=O)NCc3ccccc3)ccc12 | 0.63 µM |
| Cc1ccc(C(=O)c2cc([N+](=O)[O-])ccc2N2CCCCC2)cc1C | 6.16 µM |
| Cc1cccc(N2CCN(C(=O)c3ccc(S(=O)(=O)N(C)c4ccccc4)cc3)CC2)c1C | 10.5 µM |
| COc1cc(C2C(C#N)=C(N)Oc3cc4c(cc32)OCO4)cc(OC)c1OC (configuration not stated) | 3.86 µM |
| O=S(=O)(C/C(=C/CO)S(=O)(=O)c1ccccc1)c1ccccc1 | 6.81 µM |
